# Laboratory results taken from patent US5254726A, “No-carrier-added (NCA) aryl (18E) fluorides via the nucleophilic aromatic substitution of electron rich aromatic rings” (priority 1991, dated 1993).
# “Also recorded” adds a separate entry of the source. Where two headings read alike, the source gives them in different places.
# Tests used:
# [1] = design: species or system baboon (Papio anubis); details: in vivo
# Protocol: (§1) Adult female baboons were anesthetized and prepared for PET studies as described by Dewey et al., Synapse, 5, 213 (1990) the description of which is incorporated by reference herein. A solution of racemic 6-[^18 F]FNE (5 mCi, 0.4 μg) in 3 mL of saline was injected intravenously. Scanning was performed for 140 minutes in a Computer Technology Imaging (CTI) positron tomograph (model 931-08/12; 15 slice, 6.5-mm slice thickness, full width at half maximum (FWHM) with an in-plane resolution of 6.0×6.0 mm (FWHM). The following scanning protocol was used: ten 30-s scans, followed by five 60-s scans, followed by ten 5-minute scans, followed by eight 10-minute scans. In every case, an initial transmission scan was performed 2.0 minutes prior to radiotracer injection in order to determine the proper position of the animal in the gantry. Upon completion of this scan, adjustments in position were made as necessary and a regular transmission scan (10 minutes) was performed in order to correct for the attenuation of the annihilation photons. The tomograph was cross calibrated with the well-counter used for the measurement of radioactivity in the plasma samples. […] Vital signs including heart and respiratory rate were monitored and recorded throughout the length of the study. […]
# [2] = Plasma/blood clearance of F-18 in the baboon; assay type: in vivo, baboon (Papio anubis); details: racemic, 5 mCi i.v.
# Protocol: (§2) FIG. 8 is a time-activity curve for F-18 in the baboon mycocardium (left ventricular wall and septum) after injection of 5 mCi of racemic 6-[^18 F]FNE. FIG. 9 is a graph showing plasma clearance of F-18 in the baboon after injection of racemic 6-[^18 F]FNE. […] Radioactivity remained at 0.032% of the peak activity by 120 minutes post injection. The ratio of myocardium to plasma was 7 at 5 minutes and 11.2 at 135 minutes. The experiment was carried out as follows:
# Adult female baboons were anesthetized and prepared for PET studies as described by Dewey et al., Synapse, 5, 213 (1990) the description of which is incorporated by reference herein. A solution of racemic 6-[^18 F]FNE (5 mCi, 0.4 μg) in 3 mL of saline was injected intravenously. […] The tomograph was cross calibrated with the well-counter used for the measurement of radioactivity in the plasma samples. […] Vital signs including heart and respiratory rate were monitored and recorded throughout the length of the study.
# [3] = system: baboon mycocardium (left ventricular wall and septum); experiment: PET study of baboon heart after injection of racemic 6-[^18 F]FNE; assay type: in vivo, baboon (Papio anubis)
# Protocol: as §2
# Adult female baboons were anesthetized and prepared for PET studies as described by Dewey et al., Synapse, 5, 213 (1990) the description of which is incorporated by reference herein. A solution of racemic 6-[^18 F]FNE (5 mCi, 0.4 μg) in 3 mL of saline was injected intravenously. Scanning was performed for 140 minutes in a Computer Technology Imaging (CTI) positron tomograph (model 931-08/12; 15 slice, 6.5-mm slice thickness, full width at half maximum (FWHM) with an in-plane resolution of 6.0×6.0 mm (FWHM). The following scanning protocol was used: ten 30-s scans, followed by five 60-s scans, followed by ten 5-minute scans, followed by eight 10-minute scans. In every case, an initial transmission scan was performed 2.0 minutes prior to radiotracer injection in order to determine the proper position of the animal in the gantry. Upon completion of this scan, adjustments in position were made as necessary and a regular transmission scan (10 minutes) was performed in order to correct for the attenuation of the annihilation photons. The tomograph was cross calibrated with the well-counter used for the measurement of radioactivity in the plasma samples. A rectilinear scan was performed by placing the baboon's head in the gantry and moving through the rostral caudal extent of the animal (10-mm increments) to include the bladder at the most caudal level. Scanning was performed for 1.5 minutes at each position. Vital signs including heart and respiratory rate were monitored and recorded throughout the length of the study.
# The time-activity curve for F-18 after the injection of 6-[^18 F]FNE was generated from a region of interest over the left ventricular wall and the septum. Immediately following completion of the dynamic acquisition, a rectilinear scan (qualitative) was performed beginning at the head and continuing throughout the rostral-caudal extent of the trunk.
# [4] = Vital signs including heart and respiratory rate during PET study; assay type: in vivo, baboon (Papio anubis); details: at any time during the study; 5 mCi, 0.4 μg i.v.
# Protocol: as §1
# vesicular transporter = details: Matthaei et al. 1988; cited from earlier work
# [5] = system: adrenergic nerve terminals; details: cited from earlier work; for neuronal uptake and storage: literature
# dopamine β-hydroxylase [6] = details: Levin et al. 1960; Goldstein et al. 1962; cited from earlier work
# dopamine β-hydroxylase [7] = assay type: biochemical; details: pH 5.7, 30° C.; for product formed by dopamine β-hydroxylase: substrate incubation, chiral HPLC
# Protocol: Two enzyme incubations, with dopamine and 6-fluorodopamine, respectively, were performed simultaneously, as follows:
# 12(a) Dopamine Hydroxylation. A mixture of 0.5 mg of dopamine, potassium phosphate buffer (0.3 mL, pH 5.7), 0.5M ascorbic acid (0.02 mL, pH 5.7), 1M sodium formate (0.05 mL), and dopamine β-hydroxylase solution (0.05 mL) was stirred in a closed vial at 30° C. The cap was removed and the vial was shaken periodically. An aliquot (ca. 1 μL) was withdrawn and subjected to chiral HPLC analysis as the reaction progressed. HPLC conditions were as follows: Crownpak CR (+) columns, 15×0.46 cm, 254 nm, 0.02M HClO4, 0.7 mL/min.
# 12(b) 6-Fluorodopamine Hydroxylation. The same procedure was used as described in 12(a), except 0.4 mg of 6-fluorodopamine, kindly provided by Dr. Kenneth Kirk at the National Institutes of Health, was used as a substrate.
# Radiat. Isot., 41, 463 (1990) the disclosure of which is incorporated by reference herein, for [^11 C]octopamine enantiomers when a Crownpak CR(+) HPLC column was used.
# [8] = tracers administered in vivo; Goldstein et al. 1990, Mislankar et al. 1988; cited from earlier work
# human heart = details: Schwaiger et al. 1990, Kopin 1990; cited from earlier work
# [9] = literature; cited from earlier work
# dog heart = details: Wieland et al. 1990, Rosenspire et al. 1989; cited from earlier work
smiles,measurement,setting,value
"NCC(O)c1cc(O)c(O)cc1[18F] (racemic) [racemic 6-[^18 F]FNE, 6-[^18 F]fluoronorepinephrine]",distribution of radioactivity,[1],"Radioactivity was distributed in the parotid glands, the heart, liver, and bladder"
same,clearance from blood,[2],rapid clearance from blood
same,peak concentration of F-18 in myocardium,"[3]; 10 minutes post injection, 5 mCi racemic, i.v.",0.042 % of the injected does/cc
same,ratio of myocardium to plasma,"[3]; at 5 minutes, 5 mCi i.v.",7
same,ratio of myocardium to plasma,"[3]; at 135 minutes, 5 mCi i.v.",11.2
same,uptake and retention/clearance of F-18 in the baboon heart,"[3]; racemic, 5 mCi i.v.",high uptake and retention; also recorded: high uptake and a slow clearance
same,change in vital signs,[4],no change in vital signs
NC[C@H](O)c1ccc(O)c(O)c1 [norepinephrine],stereoselectivity for vesicular transporter,vesicular transporter,only the levorotatory enantiomer serves as a substrate for the vesicular transporter
same,stereoselectivity of neuronal uptake,[5]; Matthaei et al. 1988,not stereoselective
NCC(O)c1cc(O)c(O)cc1F (racemic) [6-fluoronorepinephrine],neuronal uptake and storage,[5],"share the same presynaptic mechanisms for the uptake, storage, and synthesis as the parent molecules"
same,neuronal uptake and storage,[5]; listed as racemic 6-fluoronorepinephrine,taken up and stored by adrenergic nerve terminals
NCCc1ccc(O)c(O)c1 [dopamine],enantiospecific conversion by dopamine β-hydroxylase,dopamine β-hydroxylase [6],enantiospecifically convert dopamine to (-)-norepinephrine
same,time to appearance of (-)-NE peak,dopamine β-hydroxylase [7]; dopamine as substrate,less than 1 hour
same,product formed by dopamine β-hydroxylase,dopamine β-hydroxylase [7],(+)-NE was not observed
"NCCc1cc(O)c(O)cc1[18F] [[^18 F]dopamine, 6-[^18 F]fluorodopamine]",vasoactivity / hemodynamic effects,[8],hemodynamic effects
C[C@H](N[11CH3])[C@H](O)c1cccc(O)c1 [[^11 C]m-hydroxyephedrine],images of the neuronal distribution,human heart,excellent images
same,metabolic stability,[9],metabolically stable
same,images of the neuronal distribution,dog heart,excellent images
same,neuronal uptake and storage,[5],share the same uptake and storage mechanisms as norepinephrine
NCCc1cc(O)c(O)cc1F [6-fluorodopamine],product formed by dopamine β-hydroxylase,dopamine β-hydroxylase [7],a new HPLC peak at 18 minutes appeared
same,neuronal uptake and storage,[5],"share the same presynaptic mechanisms for the uptake, storage, and synthesis as the parent molecules"
C[C@H](N)[C@H](O)c1cc(O)ccc1[18F] [[^18 F]fluorometaraminol],images of the neuronal distribution,human heart,excellent images
same,metabolic stability,[9],metabolically stable
same,images of the neuronal distribution,dog heart,excellent images
same,vasoactivity / hemodynamic effects,[8],hemodynamic effects
same,neuronal uptake and storage,[5],share the same uptake and storage mechanisms as norepinephrine
